Source: patent US5068222A, “Bombesin antagonists with deletion of net-residue at the C-terminus” (Imperial Chemical Industries PLC, priority 1987, dated 1991)
Where a SMILES comes first, the peptide text is derived from it. [ ]: non-standard residue; d: D form. The star is where a group is joined. Cbz = O=C(OCc1ccccc1)*

How the values were obtained:
[1] = system: mouse Swiss 3T3 fibroblast cells; type: cell-based; details: 3 h
Experimental: (b) An in vitro assay which assesses the ability of a test compound to inhibit the Neuromedin C stimulated mitogenesis of mouse Swiss 3T3 fibroblast cells as determined by the uptake of [^3 H]-thymidine. The test is similar to those described by N. Corps., L. Rees and K. Brown, Biochem. Journal, 1985, 231, 781 and I. Zachary and E. Rozengurt, Proc. Nat. Acad. Sci. U.S.A., 1985, 82, 7616, except that GRP (18-27) (0.2 or 0.4 nM) was used to stimulate growth and the test compounds were dissolved in an assay medium containing 0.1% bovine serum albumin and 0.4% dimethylsulphoxide and […]

[2] = target: T1, bombesin receptor of mouse Swiss 3T3 fibroblast cells (Mus musculus, UniProt P21729); assay: Test (a): in vitro binding assay, displacement of [I125]GRP; details: ambient temperature, 1 hour
T1 construct: the bombesin receptor of mouse Swiss 3T3 fibroblast cells; endogenous in cells; host or cells: mouse Swiss 3T3 fibroblast cells
Experimental: (a) An in vitro binding assay which assesses the ability of a test compound to displace radiolabelled gastrin releasing peptide ([I^125 ]GRP) from the bombesin receptor of mouse Swiss 3T3 fibroblast cells. The test is similar to that described by I. Zachary and E. Rozengurt, Proc. Nat. Acad. Sci. U.S.A., 1985, 82, 7616, except that the cells are incubated at ambient temperature for 1 hour;

[3] = system: bombesin-induced stimulation of the secretion of the enzyme amylase; details: rat, in vivo
Experimental: (c) An in vivo test involving the measurement of the antagonism of the bombesin-induced stimulation of the secretion of the enzyme amylase into the pancreatic duct of the rat by a test compound administered orally, sub-cutaneously or intravenously. Bombesin and the test compound can be administered concomitantly or the test compound can be predosed at any convenient interval, for example 30, 60, 90, 120, 150 or 180 minutes, before bombesin is dosed. Amylase was measured by analysis of the conversion of starch into maltose, on incubation of the starch/amylase mixture at 30° C. for 15 minutes, using a spectrophotometric assay as originally described by P. Bernfield in `Methods in Enzymology` Vol. I, p17 (Editors Colowick and Kaplan, Academic Press, New York, 1955). Bombesin (5 micrograms/kg, intravenously) causes a large, but submaximal, increase of amylase secretion within 30 minutes.

[4] = system: guinea pig pancreatic acini; details: cited from earlier work
[5] = system: bombesin-induced hypothermia; details: rat; cited from earlier work

T1 sequence (P21729 whole entry): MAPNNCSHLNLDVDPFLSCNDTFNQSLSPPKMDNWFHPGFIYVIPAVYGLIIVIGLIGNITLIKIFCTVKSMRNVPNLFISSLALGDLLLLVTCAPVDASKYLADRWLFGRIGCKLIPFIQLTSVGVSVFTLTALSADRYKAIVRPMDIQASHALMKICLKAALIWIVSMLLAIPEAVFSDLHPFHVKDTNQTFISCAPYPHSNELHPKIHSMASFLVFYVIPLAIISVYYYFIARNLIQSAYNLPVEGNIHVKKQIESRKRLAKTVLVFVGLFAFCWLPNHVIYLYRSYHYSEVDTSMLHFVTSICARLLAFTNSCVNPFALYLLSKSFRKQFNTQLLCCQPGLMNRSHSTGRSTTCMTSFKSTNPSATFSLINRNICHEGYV

Row | IC50 in test (c) [3] [mg/kg] | Molecule | IC50 [1] [nM] | bombesin-stimulated secretion of amylase [4] | also measured
1 | < 2 | CNC(=O)[C@H](CC(C)C)NC(=O)[C@H](Cc1c[nH]cn1)NC(=O)[C@@H](C)NC(=O)[C@@H](NC(=O)[C@H](C)NC(=O)[C@H](Cc1c[nH]c2ccccc12)NC(=O)[C@H](Cc1c[nH]cn1)NC(C)=O)C(C)C [Ac-His-Trp-Ala-Val-D-Ala-His-Leu-NHMe] (Ac-HWAV[dA]HL-NHMe) | 28 | – | IC50 [2]: 19.5 nM
2 | – | [D-Phe^12 ]bombesin | – | inhibited | –
3 | – | [D-Glp^7, D-Ala^11, Ala^14 ]bombesin (7-14) | – | – | antagonism of bombesin-induced hypothermia [5]: partial antagonist
4 | – | [D-Phe^12, Leu^14 ]bombesin | – | inhibited | –
5 | – | [Tyr^4, D-Phe^12 ]bombesin | – | inhibited | –
6 | 0.1 | COC(=O)[C@H](CC(C)C)NC(=O)[C@H](CCCCNC(=O)OCc1ccccc1)NC(=O)[C@@H](C)NC(=O)[C@@H](NC(=O)[C@H](C)NC(=O)[C@H](Cc1c[nH]c2ccccc12)NC(=O)[C@H](Cc1c[nH]cn1)NC(C)=O)C(C)C [Ac-His-Trp-Ala-Val-D-Ala-Lys(Z)-Leu-OMe] (Ac-HWAV[dA]K(Cbz)L-OMe) | 0.1 | – | –
